Laboratory results reported in patent US20150023884A1, “Antiperspirant Spray Devices and Compositions” (The Procter & Gamble Company, priority 2013, published 2015).

From the text: (§1) Solubility may be determined by measuring the amount of light transmittance (a light transmittance value) through a simple mixture of the non-volatile silicone fluid and liquid activation enhancer at the same weight/weight concentrations as in a final antiperspirant composition.
as §1, with “Solubility of a liquid activation enhancer in a non-volatile silicone” for “Solubility”, “(light” for “(a light”
The Spectronic Genesys 10 Vis utilizes a tungsten-halogen light source and has a spectral bandwidth of 5 nm, a wavelength range of 325 to 1100 nm, accuracy of ±1 nm and a repeatability of ±0.5 nm. Readouts include absorbance, transmittance and concentration. The spectrophotometer is set to 640 nm wavelength and the percent transmittance mode/readout. Polystyrene spectrometer cuvettes having a 1 cm optical light path and transmittance between ˜340 nm and ˜900 nm are used. One suitable example of a spectrometer cuvette is available from VWR International LLC under Catalog #97000-584 having a 2.5 to 4.5 ml capacity. […] The sample cuvettes are shaken well just prior to taking a light transmittance reading.

| Compound | light transmittance value |
| --- | --- |
| CCCCCCCCCCCCCCCCCC(=O)OCCCC [butyl stearate] | about 100% |
| CCCCCCCCCCCCCC(C)C [isohexadecane] | about 100% |
